Assay [1] concerns the target Adenosine A2a (ADORA2A) receptor (Homo sapiens (Human), UniProt P29274). In words: ADORA2A Receptor Binding Assay. To be noted: radioligand binding, membrane stock. On the procedure:
ADORA1A and ADORA2A Receptor Binding Assay
2 μL of each compound (test compounds, high control compound, low control compound) was transferred into individual wells of an assay plate. Also to each individual well, 98 μL of Adenosine A1a membrane stock (for ADORA1A Receptor Binding Assay) or Adenosine A2a membrane stock (for ADORA2A Receptor Binding Assay) was dispensed, followed by 100 μL of radio-labeled ligand. Plates were then sealed, and incubated at room temperature for 1 hour (for ADORA1A Receptor Binding Assay) or 2 hours (for ADORA2A Receptor Binding Assay). Unifilter-96 GF/C filter plates were pre-soaked with 50 μL of 0.3% PEI per well for at least 30 min at room temperature. When binding assays were completed, reaction mixtures were filtered through GF/C plates using a Perkin Elmer Filtermate Harvester, and then each plate was washed 4× with cold wash buffer. Filter plates were then dried for 1 hour at 50° C. After drying, the bottom of the filter plate wells was sealed using Perkin Elmer Unifilter-96 backing seal tape. 50 μL of Perkin Elmer Microscint 20 cocktail was then added, and the top of the filter plate was then sealed using Perkin Elmer TopSeal-A sealing film. ^3H trapped on the filter was counted using a Perkin Elmer MicroBeta2 Reader. Data analysis was performed using GraphPad Prism 5 software, and the “Inhibition [% Control]” was calculated using the following equation: % Inh=(1−Background subtracted Assay value/Background subtracted HC value)*100.

The target in assay [2] is Adenosine A2B (ADORA2B) receptor (Homo sapiens (Human), UniProt P29275). The assay can be described thus: ADORA2B Receptor Binding Assay. To be noted: radioligand binding, membrane stock. Here is the method:
ADORA2B Receptor Binding Assay
100 μL of Adenosine A2B membrane stock was dispensed into individual wells of an assay plate. 1 μL of each compound (test compounds, high control compound, low control compound) was then transferred into individual wells, followed by 100 μL of radio-labeled ligand. Plates were then sealed, and incubated at room temperature for 1 hour. Unifilter-96 GF/C filter plates were pre-soaked with 50 μL of 0.5% BSA per well for at least 30 min at room temperature. When binding assays were completed, reaction mixtures were filtered through GF/C plates using a Perkin Elmer Filtermate Harvester, and then each plate was washed 4× with cold wash buffer. Filter plates were then dried for 1 hour at 50° C. After drying, the bottom of the filter plate wells was sealed using Perkin Elmer Unifilter-96 backing seal tape. 50 μL of Perkin Elmer Microscint 20 cocktail was then added, and the top of the filter plate was then sealed using Perkin Elmer TopSeal-A sealing film. ^3H trapped on the filter was counted using a Perkin Elmer MicroBeta2 Reader. Data analysis was performed using GraphPad Prism 5 software, and the “Inhibition[% Control]” was calculated using the following equation: % Inh=(1−Background subtracted Assay value/Background subtracted HC value)*100.

Usually IC50 stands for the concentration at which inhibition is half-maximal.

Adenosine A2a (ADORA2A) receptor, sequence (P29274 whole entry): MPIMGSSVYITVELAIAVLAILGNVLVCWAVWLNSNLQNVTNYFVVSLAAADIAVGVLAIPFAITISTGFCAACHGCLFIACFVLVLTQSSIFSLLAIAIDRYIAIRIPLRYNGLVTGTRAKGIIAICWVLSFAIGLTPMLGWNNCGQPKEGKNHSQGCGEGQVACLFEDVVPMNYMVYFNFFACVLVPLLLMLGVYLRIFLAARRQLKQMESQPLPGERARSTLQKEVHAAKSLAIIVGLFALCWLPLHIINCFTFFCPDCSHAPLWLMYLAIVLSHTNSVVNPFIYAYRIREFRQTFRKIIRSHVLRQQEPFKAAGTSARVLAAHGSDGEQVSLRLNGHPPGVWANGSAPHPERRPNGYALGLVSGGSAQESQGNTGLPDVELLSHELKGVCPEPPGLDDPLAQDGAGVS
Adenosine A2B (ADORA2B) receptor, sequence (P29275 whole entry): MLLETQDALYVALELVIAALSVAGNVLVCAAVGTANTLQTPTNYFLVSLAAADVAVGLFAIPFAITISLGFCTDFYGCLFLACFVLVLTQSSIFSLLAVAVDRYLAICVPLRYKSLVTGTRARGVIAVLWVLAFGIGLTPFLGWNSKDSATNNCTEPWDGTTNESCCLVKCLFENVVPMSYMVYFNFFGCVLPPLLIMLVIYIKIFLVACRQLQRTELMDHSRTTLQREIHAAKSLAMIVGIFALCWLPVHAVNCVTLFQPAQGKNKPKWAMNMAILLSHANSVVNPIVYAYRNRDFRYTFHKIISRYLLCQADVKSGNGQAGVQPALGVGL

Regarding `Cc1nc2c3sc(=O)[nH]c3nc(-c3ccc(C)o3)n2n1` [Compound 27, 4-methyl-7-(5-methylfuran-2-yl)-12-thia-3,5,6,8,10-pentazatricyclo[7.3.0.0^2,6]dodeca-1(9),2,4,7-tetraen-l1-one], the IC50 in assay [1] and in assay [2] was 10 to 100 nM in each case.
Turning to `Cc1nc2c3c(nc(-c4ccc(C)o4)n2n1)NCC3(C)C` [Compound 28, 4,12,12-trimethyl-7-(5-methylfuran-2-yl)-3,5,6,8,10-pentazatricyclo[7.3.0.0^2,6]dodeca-1(9),2,4,7-tetraene], the IC50 lay in the range of 10 to 100 nM in assay [1] and 100 to 1000 nM in assay [2].
The like results for `Cc1nc2cc(NC(=O)C3CC3)nc(-c3ccco3)n2n1` [Compound 29, N-[5-(furan-2-yl)-2-methyl-[1,2,4]triazolo[1,5-c]pyrimidin-7-yl]cyclopropanecarboxamide] were, in that order, less than 10 nM and less than 10 nM.
The like results for `Cc1nc2c(F)c(N)nc(-c3ccc(C)o3)n2n1` [Compound 30, 8-fluoro-2-methyl-5-(5-methylfuran-2-yl)-[1,2,4]triazolo[1,5-c]pyrimidin-7-amine] were, in that order, less than 10 nM and 10 to 100 nM.
The like results for `Cc1nc2c(C(N)=O)c(N)nc(-c3ccc(C)o3)n2n1` [Compound 32, 7-amino-2-methyl-5-(5-methylfuran-2-yl)-[1,2,4]triazolo[1,5-c]pyrimidine-8-carboxamide] were, in that order, 100 to 1000 nM and 100 to 1000 nM.
`Cc1nc2c(Cl)c(N)nc(-c3ccccc3)n2n1` [Compound 33, 8-chloro-2-methyl-5-phenyl-[1,2,4]triazolo[1,5-c]pyrimidin-7-amine]: the IC50 was less than 10 nM in assay [1] and 10 to 100 nM in assay [2].
The like results for `CC(=O)Nc1cc2nc(C(C)C)nn2c(-c2ccc(C)o2)n1` [Compound 34, N-[5-(5-methylfuran-2-yl)-2-propan-2-yl-[1,2,4]triazolo[1,5-c]pyrimidin-7-yl]acetamide] were, in that order, less than 10 nM and less than 10 nM.
In the case of `Cc1nc2c3cc[nH]c3nc(-c3ccc(C)o3)n2n1` [Compound 35, 4-methyl-7-(5-methylfuran-2-yl)-3,5,6,8,10-pentazatricyclo[7.3.0.0^2,6]dodeca-1(9),2,4,7,11-pentaene], the IC50 in assay [1] and in assay [2] was less than 10 nM throughout.
Turning to `Cc1ccc(-c2nc3c(c4nc(C(C)C)nn24)C(C)(C)CN3)o1` [Compound 36, 12,12-dimethyl-7-(5-methylfuran-2-yl)-4-propan-2-yl-3,5,6,8,10-pentazatricyclo[7.3.0.0^2,6]dodeca-1(9),2,4,7-tetraene], the IC50 in assay [1] fell in the range of 10 to 100 nM; in assay [2], 100 to 1000 nM.
The like results for `CC(=O)Nc1cc2nc(C)nn2c(-c2ccco2)n1` [Compound 37, N-[5-(furan-2-yl)-2-methyl-[1,2,4]triazolo[1,5-c]pyrimidin-7-yl]acetamide] were, in that order, less than 10 nM and 10 to 100 nM.
For `Cc1nc2cc(NC(=O)C3CC3)nc(-c3ccc(C4CC4)o3)n2n1` [Compound 38, N-[5-(5-cyclopropylfuran-2-yl)-2-methyl-[1,2,4]triazolo[1,5-c]pyrimidin-7-yl]cyclopropanecarboxamide] the same measures were less than 10 nM and 10 to 100 nM.
For `Cc1nc2c(F)c(NC(=O)C3CC3)nc(-c3ccc(C)o3)n2n1` [Compound 39, N-[8-fluoro-2-methyl-5-(5-methylfuran-2-yl)-[1,2,4]triazolo[1,5-c]pyrimidin-7-yl]cyclopropanecarboxamide] the same measures were less than 10 nM and 10 to 100 nM.
In the case of `Cc1nc2c(Cl)c(N)nc(-c3ccc(C)s3)n2n1` [Compound 40, 8-chloro-2-methyl-5-(5-methylthiophen-2-yl)-[1,2,4]triazolo[1,5-c]pyrimidin-7-amine], the IC50 in assay [1] and in assay [2] was less than 10 nM each time.
For `CC(=O)Nc1cc2nc(C(F)(F)F)nn2c(-c2ccc(C)o2)n1` [Compound 41, N-[5-(5-methylfuran-2-yl)-2-(trifluoromethyl)-[1,2,4]triazolo[1,5-c]pyrimidin-7-yl]acetamide], the IC50 in assay [1] and in assay [2] was less than 10 nM each time.
Turning to `Cc1ccc(-c2nc(N)c(Cl)c3nc(C(F)(F)F)nn23)o1` [Compound 42, 8-chloro-5-(5-methylfuran-2-yl)-2-(trifluoromethyl)-[1,2,4]triazolo[1,5-c]pyrimidin-7-amine], the IC50 in assay [1] and in assay [2] was less than 10 nM each time.
On to `Cc1nc2cc(NC(=O)C3CC3)nc(-c3ccc(C(C)(C)C)o3)n2n1` [Compound 43, N-[5-(5-tert-butylfuran-2-yl)-2-methyl-[1,2,4]triazolo[1,5-c]pyrimidin-7-yl]cyclopropanecarboxamide], for which the figures for the IC50 in assay [1] and in assay [2] were 10 to 100 nM and more than 1000 nM, respectively.
For `CC(=O)Nc1cc2nc(C)nn2c(-c2cnc(C)o2)n1` [Compound 44, N-[2-methyl-5-(2-methyl-1,3-oxazol-5-yl)-[1,2,4]triazolo[1,5-c]pyrimidin-7-yl]acetamide] the same measures were 10 to 100 nM and 10 to 100 nM.
`Cc1nc2c3cc(C)[nH]c3nc(-c3ccc(C)o3)n2n1` [Compound 45, 4,11-dimethyl-7-(5-methylfuran-2-yl)-3,5,6,8,10-pentazatricyclo[7.3.0.0^2,6]dodeca-1(9),2,4,7,11-pentaene]: the IC50 in assay [1] and in assay [2] was less than 10 nM each time.
`CC(=O)Nc1cc2nc(C(C)C)nn2c(-c2cnc(C)o2)n1` [Compound 47, N-[5-(2-methyl-1,3-oxazol-5-yl)-2-propan-2-yl-[1,2,4]triazolo[1,5-c]pyrimidin-7-yl]acetamide]: the IC50 is less than 10 nM in assay [1] and 10 to 100 nM in assay [2].
The like results for `CC(=O)Nc1cc2nc(C(C)C)nn2c(-c2ccco2)n1` [Compound 48, N-[5-(furan-2-yl)-2-propan-2-yl-[1,2,4]triazolo[1,5-c]pyrimidin-7-yl]acetamide] were, in that order, less than 10 nM and less than 10 nM.
The like results for `CC(=O)Nc1cc2nc(C(C)C)nn2c(-c2cnco2)n1` [Compound 49, N-[5-(1,3-oxazol-5-yl)-2-propan-2-yl-[1,2,4]triazolo[1,5-c]pyrimidin-7-yl]acetamide] were, in that order, 10 to 100 nM and 100 to 1000 nM.
As for `Cc1ccc(-c2nc(NC(=O)C3CC3)cc3nc(C4CCOC4)nn23)o1` (centres unmarked) [Compound 50, N-[5-(5-methylfuran-2-yl)-2-(oxolan-3-yl)-[1,2,4]triazolo[1,5-c]pyrimidin-7-yl]cyclopropanecarboxamide], the IC50 in assay [1] is less than 10 nM; in assay [2] it was 10 to 100 nM.
The like results for `CC(=O)Nc1cc2nc(C)nn2c(-c2cnco2)n1` [Compound 51, N-(2-methyl-5-(oxazol-5-yl)-[1,2,4]triazolo[1,5-c]pyrimidin-7-yl)acetamide] were, in that order, 100 to 1000 nM and more than 1000 nM.
For `Cc1nc2cc(NC(=O)C3CC3)nc(-c3ccc(Br)o3)n2n1` [Compound 52, N-[5-(5-bromofuran-2-yl)-2-methyl-[1,2,4]triazolo[1,5-c]pyrimidin-7-yl]cyclopropanecarboxamide] the same measures were less than 10 nM and less than 10 nM.
For `Cc1nc2cc(NC(=O)C3CC3)nc(-c3cccc(C#N)c3)n2n1` [Compound 53, N-[5-(3-cyanophenyl)-2-methyl-[1,2,4]triazolo[1,5-c]pyrimidin-7-yl]cyclopropanecarboxamide] the same measures were 10 to 100 nM and 100 to 1000 nM.
As for `Cc1ccc(-c2nc(NC(=O)C3CC3)cc3nc(C4CCOCC4)nn23)o1` [Compound 54, N-[5-(5-methylfuran-2-yl)-2-(oxan-4-yl)-[1,2,4]triazolo[1,5-c]pyrimidin-7-yl]cyclopropanecarboxamide], the concentration for half-maximal inhibition (IC50) in assay [1] was less than 10 nM; in assay [2], 100 to 1000 nM.
The like results for `Cc1nc2cc(NC(=O)C3CC3)nc(-c3ccc(C(C)C)o3)n2n1` [Compound 55, N-[2-methyl-5-(5-propan-2-ylfuran-2-yl)-[1,2,4]triazolo[1,5-c]pyrimidin-7-yl]cyclopropanecarboxamide] were, in that order, less than 10 nM and 100 to 1000 nM.
For `Cc1nc2cc(NC(=O)C3CC3)nc(-c3ccc(C#N)cc3)n2n1` [Compound 56, N-[5-(4-cyanophenyl)-2-methyl-[1,2,4]triazolo[1,5-c]pyrimidin-7-yl]cyclopropanecarboxamide], the IC50 is 100 to 1000 nM in assay [1] and more than 1000 nM in assay [2].

(Values after patent US11718622B2, “Heterocyclic adenosine receptor antagonists” (Exelixis, Inc., priority 2020, dated 2023).)
